These results are taken from US10130101B2 (priority 2015, dated 2018).

The subject of data set [1] is pyrethroid resistant bed bugs, Cimex lectularius (ECL-05 strain). The format is in vivo. Conditions: day 7; 0.05% imidacloprid formulation, not diluted; direct spray 0.50 g per replication.
Experimental: Treatments 1 to 4 were diluted in acetone to 5.5% w/w. Treatment 5 was not diluted.
The ECL-05 strain of bugs was used in the study. This strain represents an aggregate colony of pyrethroid resistant strains of bed bugs from Minnesota, Wisconsin, Florida and New Jersey.
Adult male bed bugs, 5 to 6 weeks old, were sorted from the colonies at the University of Minnesota using a pair of soft tissue forceps (Fisher Scientific, Pittsburgh, Pa., USA). Bed bugs were transferred to Applicant and maintained in a glass jar with a mesh screen top, as described above, in an environmental chamber (Darwin Chamber Company, Saint Louis, Mo., USA) at 27° C. and 65% relative humidity until testing.
For testing, 10 adult males were transferred into specific bed bug spray containers using soft tissue forceps. Bed bug spray containers were constructed by placing a 150 mm Whatman filter paper (Fisher Scientific, Pittsburgh, Pa., USA) onto the top of a stainless steel, round ring (10 cm in diameter and 3.25 cm in height). A second stainless steel ring of similar dimensions was then stacked on top of the base ring creating a double-ring structure with a filter paper surface in between. The sides of the double ring structure were secured with laboratory labeling tape (Fisher Scientific, Pittsburgh, Pa., USA). […]
Data set [2] has as its system pyrethroid resistant bed bugs. Kind of data set: whole plant or invertebrate. The format is in vivo. The note with it: Cimex lectularius, 168 h; 7 days; imidacloprid at 0.05% w/w.
Text: For testing, 10 adult males were transferred into specific bed bug spray containers using soft tissue forceps. Bed bug spray containers were constructed by placing a 150 mm Whatman filter paper (Fisher Scientific, Pittsburgh, Pa., USA) onto the top of a stainless steel, round ring (10 cm in diameter and 3.25 cm in height). A second stainless steel ring of similar dimensions was then stacked on top of the base ring creating a double-ring structure with a filter paper surface in between. The sides of the double ring structure were secured with laboratory labeling tape (Fisher Scientific, Pittsburgh, Pa., USA). In the resulting setup, the filter paper provides a non-abrasive surface for bed bugs to rest on while it also serves to absorb any overspray in the container. Following the transfer of bed bugs from the colony jar, bed bugs were allowed to recover for 1 hour in the spray container before treatment application commenced.
Treatments were administered using a DeVilbiss 151 atomizer (The DeVilbiss Co., Glendale Heights, Ill., USA) attached to a Paasche D500 air compressor (Paasche Airbrush Company, Chicago, Ill., USA). Treatment volume was set at 0.50 g of treatment solution per replication. […]
Mortality at day 7 was analyzed by one-way analysis of variance (ANOVA). […]

The mortality is the share of the test organisms that died.

For the molecule `O=[N+]([O-])NC1=NCCN1Cc1ccc(Cl)nc1` [Imidacloprid, imidacloprid], the “Mortality (%)” value in data set [1] worked out at 100.0%. This molecule also yielded a mortality at 0.05 % strength in data set [2] of 100%.
